# In US20060161001A1, “Substituted heterocyclic compounds and methods of use” (Amgen Inc., priority 2004, published 2006):
# Test system: LPS induced TNF release
# Assay: THP1 cell assay (LPS induced TNF release)
# Format: cell-based
# Details: Homo sapiens, THP-1; THP1 cells, LPS induced TNF-α secretion, 3 h at 37° C.
# Experimental: Lipopolysaccharide-Activated THP1 Cell TNF Production Assay
# THP1 cells are resuspended in fresh THP1 media (RPMI 1640, 10% heat-inactivated FBS, 1XPGS, 1XNEAA, plus 30 μM OME) at a concentration of 1E6/mL. One hundred microliters of cells per well are plated in a polystyrene 96-well tissue culture. One microgram per mL of bacterial LPS is prepared in THP1 media and is transferred to the wells. Test compounds are dissolved in 100% DMSO and are serially diluted 3-fold in a polypropylene 96-well microtiter plate (drug plate). HI control and LO control wells contain only DMSO. One microliter of test compound from the drug plate followed by 10 μL of LPS are transferred to the cell plate. The treated cells are induced to synthesize and secrete TNF-α at 37° C. for 3 h. Forty microliters of conditioned media are transferred to a 96-well polypropylene plate containing 110 μL of ECL buffer (50 mM Tris-HCl pH 8.0, 100 mM NaCl, 0.05% Tween 20, 0.05% NaN3 and 1% FBS) supplemented with 0.44 nM MAB610 monoclonal Ab (R&D Systems), 0.34 nM ruthenylated AF210NA polyclonal Ab (R&D Systems) and 44 μg/mL sheep anti-mouse M280 Dynabeads (Dynal). After a 2 h incubation at RT with shaking, the reaction is read on the ECL M8 Instrument (IGEN Inc.). A low voltage is applied to the ruthenylated TNF-α immune complexes, which in the presence of TPA (the active component in Origlo), results in a cyclical redox reaction generating light at […]. The amount of secreted TNF-α in the presence of compound compared with that in the presence of DMSO vehicle alone (HI control) is calculated using the formula: % control (POC)=(cpd−average LO)/(average HI−average LO)*100. Data (consisting of POC and inhibitor concentration in μM) is fitted to a 4-parameter equation (y=A+((B−A)/(I+((x/C)ˆD))), where A is the minimum y (POC) value, B is the maximum y (POC), C is the x (cpd concentration) at the point of inflection and D is the slope factor) using a Levenburg-Marquardt non-linear regression algorithm.
row,IC50 [µM],Compound
1,≤ 20,"C[C@@H](Cc1cccc(C(C)(C)N)c1)Nc1nccc(N2CCCc3cnc(-c4ccccc4)cc32)n1 [Example 39, (S)-N-(1-(3-(2-Aminopropan-2-yl)phenyl)propan-2-yl)-4-(7-phenyl-3,4-dihydro-1,6-naphthyridin-1(2H)-yl) pyrimidin-2-amine]"
2,≤ 20,"CC(C)(Cc1ccc(F)cc1)Nc1nccc(N2CCCc3cnc(-c4ccccc4)cc32)n1 [Example 40, N-(1-(4-Fluorophenyl)-2-methylpropan-2-yl)-4-(7-phenyl-3,4-dihydro-1,6-naphthyridin-1(2H)-yl) pyrimidin-2-amine]"
3,≤ 20,"CC(C)(CN)Nc1nccc(N2CCCc3cnc(-c4ccccc4)cc32)n1 [Example 41, N-(1-Amino-2-methylpropan-2-yl)-4-(7-phenyl-3,4-dihydro-1,6-naphthyridin-1(2H)-yl)pyrimidin-2-amine]"
4,≤ 20,"CC(=O)NCC(C)(C)Nc1nccc(N2CCCc3cnc(-c4ccccc4)cc32)n1 [Example 42, N-(2-Methyl-2-(4-(7-phenyl-3,4-dihydro-1,6-naphthyridin-1(2H)-yl)pyrimidin-2-ylamino)propyl)acetamide]"
5,≤ 20,"CC(C)NCC(C)(C)Nc1nccc(N2CCCc3cnc(-c4ccccc4)cc32)n1 [Example 43, N-(1-(Isopropylamino)-2-methylpropan-2-yl)-4-(7-phenyl-3,4-dihydro-1,6-naphthyridin-1(2H)-yl) pyrimidin-2-amine]"
6,≤ 20,"c1ccc(CCNc2nccc(N3CCCc4ccc(-c5ccccc5)nc43)n2)cc1 [Example 47, N-Phenethyl-4-(7-phenyl-3,4-dihydro-1,8-naphthyridin-1(2H)-yl)pyrimidin-2-amine]"
7,≤ 20,"CC(Cc1cccc(CO)c1)Nc1nccc(N2CCCc3ccc(-c4ccccc4)nc32)n1 (stereo not shown) [Example 48, (3-(2-(4-(7-Phenyl-3,4-dihydro-1,8-naphthyridin-1(2H)-yl)pyrimidin-2-yl-amino)propyl)phenyl)methanol]"
8,≤ 20,"CC(Cc1cccc(CN)c1)Nc1nccc(N2CCCc3ccc(-c4ccccc4)nc32)n1 (stereo not shown) [Example 49, N-(1-(3-(Aminomethyl)phenyl)propan-2-yl)-4-(7-phenyl-3,4-dihydro-1,8-naphthyridin-1(2H)-yl)pyrimidin-2-amine]"
9,≤ 20,"c1ccc(-c2ccc3c(n2)N(c2ccnc(NCCc4cccnc4)n2)CCC3)cc1 [Example 50, 4-(7-Phenyl-3,4-dihydro-1,8-naphthyridin-1(2H)-yl)-N-(2-(pyridin-3-yl)ethyl)-pyrimidin-2-amine]"
10,≤ 20,"CN(C)CC(C)(C)CNc1nccc(N2CCCc3ccc(-c4ccccc4)nc32)n1 [Example 51, N-(3-(Dimethylamino)-2,2-dimethylpropyl)-4-(7-phenyl-3,4-dihydro-1,8-naphthyridin-1(2H)-yl)pyrimidin-2-amine]"
11,≤ 20,"CC(C)(C)CNc1nccc(N2CCCc3ccc(-c4ccccc4)nc32)n1 [Example 52, N-Neopentyl-4-(7-phenyl-3,4-dihydro-1,8-naphthyridin-1(2H)-yl)pyrimidin-2-amine]"
12,≤ 20,"CC(C)(N)CNc1nccc(N2CCCc3ccc(-c4ccccc4)nc32)n1 [Example 53, N-(2-Amino-2-methylpropyl)-4-(7-phenyl-3,4-dihydro-1,8-naphthyridin-1(2H)-yl)-pyrimidin-2-amine]"
13,≤ 20,"CC(C)(C)OC(=O)N1CCC(Nc2nccc(N3CCCc4ccc(-c5ccccc5)nc43)n2)CC1 [Example 54, tert-Butyl 4-(4-(7-phenyl-3,4-dihydro-1,8-naphthyridin-1(2H)-yl)pyrimidin-2-yl-amino)piperidine-1-carboxylate]"
14,≤ 20,"FC(F)(F)c1cc(N2CCCc3ccc(-c4ccccc4)nc32)nc(NCCc2ccccc2)n1 [Example 56, N-Phenethyl-4-(7-phenyl-3,4-dihydro-1,8-naphthyridin-1(2H)-yl)-6-(trifluoromethyl)pyrimidin-2-amine]"
15,≤ 20,"CC(Cc1cccc(CO)c1)Nc1nc(N2CCCc3ccc(-c4ccccc4)nc32)cc(C(F)(F)F)n1 (stereo not shown) [Example 57, (3-(2-(4-(7-Phenyl-3,4-dihydro-1,8-naphthyridin-1(2H)-yl)-6-(trifluoromethyl)-pyrimidin-2-ylamino)propyl)phenyl)methanol]"
16,≤ 20,"CC(Cc1cccc(CN)c1)Nc1nc(N2CCCc3ccc(-c4ccccc4)nc32)cc(C(F)(F)F)n1 (stereo not shown) [Example 58, N-(1-(3-(Aminomethyl)phenyl)propan-2-yl)-4-(7-phenyl-3,4-dihydro-1,8-naphthyridin-1(2H)-yl)-6-(trifluoromethyl)pyrimidin-2-amine]"
17,≤ 20,"Cc1cc(N2CCCc3ccc(-c4ccccc4)nc32)nc(F)n1 [Example 59, 1-(2-Fluoro-6-methylpyrimidin-4-yl)-7-phenyl-1,2,3,4-tetrahydro-1,8-naphthyridine]"
18,≤ 20,"Cc1cc(N2CCCc3ccc(-c4ccccc4)nc32)nc(NC2CCN(C(=O)OC(C)(C)C)CC2)n1 [Example 60, tert-Butyl 4-(4-methyl-6-(7-phenyl-3,4-dihydro-1,8-naphthyridin-1(2H)-yl)-pyrimidin-2-ylamino)piperidine-1-carboxylate]"
19,≤ 20,"Cc1cc(N2CCCc3ccc(-c4ccccc4)nc32)nc(N[C@@H](C)Cc2cccc([C@@H](C)NC(=O)OC(C)(C)C)c2)n1 [Example 61, tert-Butyl (R)-1-(3-((S)-2-(4-methyl-6-(7-phenyl-3,4-dihydro-1,8-naphthyridin-1 (2H)-yl)pyrimidin-2-ylamino)propyl)phenyl)ethylcarbamate]"
20,≤ 20,"Cc1cc(N2CCCc3ccc(-c4ccccc4)nc32)nc(N[C@@H](C)Cc2cccc([C@@H](C)N)c2)n1 [Example 62, N-((S)-1-(3-((R)-1-Aminoethyl)phenyl)propan-2-yl)-4-methyl-6-(7-phenyl-3,4-dihydro-1,8-naphthyridin-1(2H)-yl)pyrimidin-2-amine]"
21,≤ 20,"CCOC(=O)c1cc2c(nc1-c1ccccc1)N(c1ccnc(NCCc3ccccc3)n1)CCC2 [Example 66, Ethyl 8-(2-(Phenethylamino)pyrimidin-4-yl)-2-phenyl-5,6,7,8-tetrahydro-1,8-naphthyridine-3-carboxylate]"
22,≤ 20,"OCc1cc2c(nc1-c1ccccc1)N(c1ccnc(NCCc3ccccc3)n1)CCC2 [Example 67, (8-(2-(Phenethylamino)pyrimidin-4-yl)-2-phenyl-5,6,7,8-tetrahydro-1,8-naphthyridin-3-yl)methanol]"
23,≤ 20,"COCc1cc2c(nc1-c1ccccc1)N(c1ccnc(NCCc3ccccc3)n1)CCC2 [Example 68, 4-(6-(Methoxymethyl)-7-phenyl-3,4-dihydro-1,8-naphthyridin-1(2H)-yl)-N-phenethylpyrimidin-2-amine]"
24,≤ 20,"O=C(O)c1cc2c(nc1-c1ccccc1)N(c1ccnc(NCCc3ccccc3)n1)CCC2 [Example 69, 8-(2-(Phenethylamino)pyrimidin-4-yl)-2-phenyl-5,6,7,8-tetrahydro-1,8-naphthyridine-3-carboxylic acid]"
25,≤ 20,"CNCc1cc2c(nc1-c1ccccc1)N(c1ccnc(NCCc3ccccc3)n1)CCC2 [Example 70, 4-(6-((Methylamino)methyl)-7-phenyl-3,4-dihydro-1,8-naphthyridin-1(2H)-yl)-N-phenethylpyrimidin-2-amine]"
